pIC50: −log10 of the molar value. Read-outs that look alike come from different tables or passages of the source.
Experiments:
[1] = system: Herpes simplex virus and varicella-zoster virus; settings: cited from earlier work
SARS-CoV [2] = assay type: cell-based
Cytomegalovirus = settings: cited from earlier work
Herpes simplex mutants = settings: cited from earlier work
Influenza virus = settings: cited from earlier work
Herpes and poxviruses = settings: cited from earlier work
[3] = system: HIV and other retroviruses; settings: cited from earlier work
SARS-CoV [4] = settings: ribavirin concentrations that inhibit other sensitive viruses; preliminary; cited from earlier work
HIV = settings: cited from earlier work; for pIC50: read-out: IC50
[5] = complete (100%) inhibition of CPE up to highest concentration tested, 10,000 PFU/well, MOI 0.5, Vero E6

Q: With `Nc1nc2c(ncn2COCCO)c(=O)[nH]1` [Acyclovir] as the compound, how does the IC50 [1] read?
A: 0.01 to 13.5 mg/L

Q: What about the “Inhibition of Cytopathic Effect” value (SARS-CoV [2]) of the same compound?
A: No

Q: With `O=C(O)P(=O)(O)O` [Foscarnet] as the compound, how does the pIC50 (Cytomegalovirus; read-out: IC50) read?
A: 3.10 to 4.30

Q: What about the pIC50 (Herpes simplex mutants) of the same compound?
A: 3.35 to 5.30

Q: And the “Inhibition of Cytopathic Effect” value (SARS-CoV [2])?
A: No

Q: For `CC(=O)N[C@H]1[C@H]([C@H](O)[C@H](O)CO)OC(C(=O)O)=C[C@@H]1N=C(N)N` [Zanamivir], which “Inhibition of Cytopathic Effect” value (SARS-CoV [2]) is on record?
A: No

Q: What about the pIC50 (Influenza virus; read-out: IC50) of the same compound?
A: 4.80 to 8.30

Q: For `NC(=O)c1ncn([C@@H]2O[C@H](CO)[C@@H](O)[C@H]2O)n1` [Ribavirin], which MIC (Herpes and poxviruses) is on record?
A: 3.2 to 50 mg/L

Q: And the IC50 [3]?
A: 25 to 100 mg/L

Q: And the cytotoxicity (Vero E6 cells)?
A: slight cytotoxicity

Q: What about the “concentrations at which cytotoxic effects were observed” value (Vero E6 cells; African green monkey) of the same compound?
A: 200 to 1000 µg/mL

Q: What about the “inhibition of replication or cell-to-cell spread of the SARS-CoV” value (SARS-CoV [4]) of the same compound?
A: do not inhibit

Q: What about the “concentrations showing inhibitory activity” value (SARS-CoV [2]; all three viral loads) of the same compound?
A: 0.5 to 5 mg/mL

Q: What about the “Inhibition of Cytopathic Effect” value (SARS-CoV [2]; [5]) of the same compound?
A: Yes

Q: And the “Complete inhibition of cytopathic effect (CIA100)” value (shortened to “Complete inhibition”) (SARS-CoV [2]; virus load 100 PFU/well)?
A: 1,000 μg/mL

Q: And the “Complete inhibition” value (SARS-CoV [2]; virus load 1,000 PFU/well)?
A: 10,000 μg/mL

Q: What about the “Complete inhibition” value (SARS-CoV [2]; virus load 10,000 PFU/well) of the same compound?
A: 5,000 μg/mL

Q: What about the “Complete inhibition” value (SARS-CoV [2]; virus load 10,000 PFU/well, listed as Ribavarin) of the same compound?
A: 10,000 μg/mL

Q: And the IC50 (Influenza virus)?
A: 1 to 25 mg/L

Q: Which IC50 (Cytomegalovirus) does the source give for `Nc1nc(O)c2ncn(COC(CO)CO)c2n1` [Cymevene, Ganciclovir] here?
A: 0.02 to 3.48 mg/L

Q: And the “Inhibition of Cytopathic Effect” value (SARS-CoV [2])?
A: No

Q: With `CC(C)(C)NC(=O)[C@@H]1CN(Cc2cccnc2)CCN1C[C@@H](O)C[C@@H](Cc1ccccc1)C(=O)N[C@H]1c2ccccc2C[C@H]1O` [Indinavir] as the compound, how does the pIC50 (HIV) read?
A: 7.00 to 7.60

Q: And the “Inhibition of Cytopathic Effect” value (SARS-CoV [2]; [5])?
A: No

Q: With `Cc1cn([C@H]2C[C@H](N=[N+]=[N-])[C@@H](CO)O2)c(=O)[nH]c1=O` [Zidovudine] as the compound, how does the IC50 (HIV) read?
A: 0.003 to 0.013 mg/L

Q: And the “Inhibition of Cytopathic Effect” value (SARS-CoV [2]; [5])?
A: No

Q: With `NC12CC3CC(CC(C3)C1)C2` [Amantadine] as the compound, how does the “Inhibition of Cytopathic Effect” value (SARS-CoV [2]) read?
A: No

Q: With `CC(C)(C)NC(=O)[C@@H]1C[C@@H]2CCCC[C@@H]2CN1C[C@@H](O)[C@H](Cc1ccccc1)NC(=O)[C@H](CC(N)=O)NC(=O)c1ccc2ccccc2n1` [Saquinavir] as the compound, how does the pIC50 (HIV) read?
A: 7.52 to 9.00

Q: What about the “Inhibition of Cytopathic Effect” value (SARS-CoV [2]) of the same compound?
A: No

Q: For `CCOC(=O)C1=C[C@@H](OC(CC)CC)[C@H](NC(C)=O)[C@@H](N)C1` [Oseltamivir], which “Inhibition of Cytopathic Effect” value (SARS-CoV [2]) is on record?
A: No

Q: For Interferon α2b, which “Inhibition of Cytopathic Effect” value (SARS-CoV [2]) is on record?
A: No

Q: What does the source list for `Cc1c(O)cccc1C(=O)N[C@@H](CSc1ccccc1)[C@H](O)CN1C[C@H]2CCCC[C@H]2C[C@H]1C(=O)NC(C)(C)C` [Nelfinavir]?
A: EC95 (HIV): 0.007 to 0.196 µM; Inhibition of Cytopathic Effect (SARS-CoV [2]): No
